Counter-ions that a name gives are not always drawn.
Legend:
Test in all cases: cell viability (% survival relative to DMSO control); higher = less cytotoxic
Details in all cases: 72 h
[1] = test system: myeloid leukemia patient primary cells Pat.10
In short: (§1)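 Mononuclear cells from patients with AML or CML were thawed, purified on Ficoll and placed in RPMI 1640 with 10% FBS at 10,000 cells/well on 384-well plates. The plates came pre-printed with 70 compounds at five tenfold concentrations spanning 1–10,000 nM, in duplicate, and cells were exposed for 72 h. CellTiter-Glo gave viability, scaled between DMSO wells and wells with 10 μM proteasome inhibitor. Where reported, area under the curve was obtained from log-logistic fits with four parameters using the drc and PharmacoGx R packages.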

[2] = test system: myeloid leukemia patient primary cells Pat.11
In short: as §1

[3] = test system: myeloid leukemia patient primary cells Pat.12
In short: as §1

[4] = test system: myeloid leukemia patient primary cells Pat.13
In short: as §1

[5] = test system: myeloid leukemia patient primary cells Pat.14
In short: as §1

[6] = test system: myeloid leukemia patient primary cells Pat.3
In short: as §1

[7] = test system: myeloid leukemia patient primary cells Pat.4
In short: as §1

[8] = test system: myeloid leukemia patient primary cells Pat.5
In short: as §1

[9] = test system: myeloid leukemia patient primary cells Pat.6
In short: as §1

[10] = test system: myeloid leukemia patient primary cells Pat.8
In short: as §1

[11] = test system: myeloid leukemia patient primary cells Pat.9
In short: as §1

MV4-11 = test system: MV4-11
Experimental: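 8x8 drug-combination matrices (0–5000 nM; rosiglitazone and lestaurtinib 0–1000 nM) were run in MV4-11 cells for 72 h with CellTiter-Glo read-out. Survival is normalised to DMSO and 10 µM bortezomib and clipped at 100%.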

CCN(CC)C(=S)SSC(=S)N(CC)CC [Disulfiram]
cell viability [%]
Details	1 nM	10 nM	100 nM	1000 nM	10000 nM
[1]	85	72.2	47.8	56.6	> 100
[2]	99.9	99.2	98.7	2.1	3.25
[3]	98	95.2	54	3.19	< 0
[4]	94.8	91	79.5	< 0	4.12
[5]	89.1	93.9	87.8	60.5	21.4
[6]	> 100	99.2	99.7	84.6	1.56
[7]	94.9	90.7	96.1	0.934	6.79
[8]	76.6	76.8	74.5	26.1	5.84
[9]	99.6	94.6	80.5	2.26	4.13
[10]	61.6	76.7	39.6	0.473	1.14
[11]	71.8	> 100	86.3	33.6	20.9

c1cc(-c2cnn3cc(-c4ccc(OCCN5CCCCC5)cc4)cnc23)ccn1 [Dorsomorphin]
cell viability [%]
Details	1 nM	10 nM	100 nM	1000 nM	10000 nM
[1]	17.6	76.4	61.4	27.6	38.4
[2]	95.2	> 100	90.4	79.8	43.8
[3]	98.5	97.1	98.5	92	91.6
[4]	88.2	94.5	64.7	50.7	48.6
[5]	48.1	100	53	84.5	60.8
[6]	64.7	99.1	67.9	86.3	34.1
[7]	86.7	91.5	90.1	56.8	35.9
[8]	3.45	81.3	5.46	1.33	10.2
[9]	84.6	> 100	73.2	83.4	72.5
[10]	77.5	99	92.6	81.6	68.6
[11]	41.6	> 100	11.5	41.3	18.7

CO[C@H]1C[C@@H]2CC[C@@H](C)[C@@](O)(O2)C(=O)C(=O)N2CCCC[C@H]2C(=O)O[C@H]([C@H](C)C[C@@H]2CC[C@@H](OCCO)[C@H](OC)C2)CC(=O)[C@H](C)/C=C(\C)[C@@H](O)[C@@H](OC)C(=O)[C@H](C)C[C@H](C)/C=C/C=C/C=C/1C [Everolimus]
cell viability [%]
Details	1 nM	10 nM	100 nM	1000 nM	10000 nM
[1]	34.9	31.3	34.9	41.7	11.8
[2]	90.6	83.8	89.2	87.3	70.2
[3]	96.2	> 100	> 100	93.7	99
[4]	82.2	82.6	74.8	79.3	43.1
[5]	90.7	53.5	96.7	59.3	17.4
[6]	78.6	5.05	94.1	42.3	7.24
[7]	64.8	57.9	47	47.3	41.9
[8]	49.5	20.5	23	9.25	0.912
[9]	96.2	92.4	99.1	87.4	53.5
[10]	67.6	68.8	56.4	80.7	66.5
[11]	64.2	22.3	87.7	15.7	0.492

Cc1cc2c(C(C)C)c(O)c(O)c(C=O)c2c(O)c1-c1c(C)cc2c(C(C)C)c(O)c(O)c(C=O)c2c1O [Gossypol]
cell viability [%]
Details	1 nM	10 nM	100 nM	1000 nM	10000 nM
[1]	89.2	41.6	43.3	2.16	89.9
[2]	98.5	98.9	91.9	84.6	11.6
[3]	98.6	94	88.1	99.1	50.5
[4]	87.8	69.7	83.6	75.4	15
[5]	> 100	42.9	69.1	0.583	63.3
[6]	96.5	28	70.6	< 0	3.08
[7]	84.4	90.7	77.1	81.5	8.19
[8]	98.7	6.75	22.8	5.84	93.9
[9]	99.8	80.8	84.4	83.7	20.9
[10]	82.2	89.7	89.9	84.7	6.5
[11]	63.1	7.88	22	6.35	28.7

CCn1c(=Cc2cccc[n+]2CC)sc(=C2Sc3ccccc3N2C)c1=O [MKT 077] + CN(C)CCNC(=O)c1cccn2c(=O)c3cc4ccccc4cc3nc12 [Bmh-21]
cell viability [%], MV4-11
Details	drug1 concentration 5 nM	drug1 concentration 10 nM	drug1 concentration 50 nM	drug1 concentration 100 nM	drug1 concentration 500 nM	drug1 concentration 1000 nM	drug1 concentration 5000 nM
drug2 concentration 5 nM	89	81.4	> 100	87.9	90.8	> 100	78.7
drug2 concentration 10 nM	97.1	> 100	> 100	99.1	86	71	> 100
drug2 concentration 50 nM	86.2	86.7	88.4	> 100	84.5	> 100	> 100
drug2 concentration 100 nM	> 100	> 100	92.3	95.9	89.4	69.7	> 100
drug2 concentration 500 nM	70.6	88.8	78.3	87.8	> 100	86.7	84.5
drug2 concentration 1000 nM	87.2	46.6	> 100	89.9	74.8	60.5	64.2
drug2 concentration 5000 nM	31.1	35.2	31.4	63.2	25.9	24.1	37.5

CN(Cc1cnc2nc(N)nc(N)c2n1)c1ccc(C(=O)N[C@@H](CCC(=O)O)C(=O)O)cc1 [Methotrexate]
cell viability [%]
Details	1 nM	10 nM	100 nM	1000 nM	10000 nM
[1]	68.8	42.2	80.2	23	15.2
[2]	96.2	98.4	97.3	81.7	95.5
[3]	> 100	98.1	97.4	87	97.3
[4]	96.4	88.3	82.7	58.2	88.5
[5]	89	94.6	87.8	22.5	35.6
[6]	46	95	40	10.9	5.65
[7]	88	87.6	70.2	73.6	95.8
[8]	98.7	50.1	57.6	< 0	46.4
[9]	99.7	95.8	97.1	67.7	92
[10]	76.5	89.1	96.3	70.3	86.1
[11]	51.4	92.2	25.9	6.38	0.492

CC(=O)Nc1nc(C)c(-c2ccc(Cl)c(S(=O)(=O)NCCO)c2)s1 [PIK93]
cell viability [%]
Details	1 nM	10 nM	100 nM	1000 nM	10000 nM
[1]	65.9	22.6	56.6	60.8	16.8
[2]	96.6	85.4	88.7	54.6	32.4
[3]	94.1	92.3	95.9	88.3	79
[4]	91.2	35.4	61.6	54.3	14.4
[5]	72.6	2.07	52.8	63.9	38.6
[6]	46.7	24	70.6	59.3	15.4
[7]	97.3	87.1	72.2	10.6	6.67
[8]	57.4	2.24	1.33	17	1.33
[9]	91.8	35.2	87.8	72.1	40.8
[10]	86.5	81.9	87.9	64.2	48.8
[11]	68.9	0.773	23.7	24.5	5.28

CN(CCOc1ccc(Cc2sc(O)nc2O)cc1)c1ccccn1 [Rosiglitazone] + CC(C)(Cc1ccccc1)NCC(O)c1ccc(O)c(NS(C)(=O)=O)c1 [Zinterol hydrochloride]
cell viability [%], MV4-11
Details	drug1 concentration 1 nM	drug1 concentration 5 nM	drug1 concentration 10 nM	drug1 concentration 50 nM	drug1 concentration 100 nM	drug1 concentration 500 nM	drug1 concentration 1000 nM
drug2 concentration 5 nM	> 100	97.6	93.9	77.8	> 100	> 100	> 100
drug2 concentration 10 nM	> 100	> 100	> 100	> 100	> 100	89.1	> 100
drug2 concentration 50 nM	97	96.9	91.9	> 100	> 100	94	> 100
drug2 concentration 100 nM	> 100	> 100	> 100	> 100	93	96.1	> 100
drug2 concentration 500 nM	99.9	> 100	98.7	> 100	> 100	87.2	98.8
drug2 concentration 1000 nM	> 100	70.6	96.2	> 100	91.6	95.1	> 100
drug2 concentration 5000 nM	95	> 100	98.5	> 100	> 100	> 100	> 100

CN(CCOc1ccc(Cc2sc(O)nc2O)cc1)c1ccccn1 [Rosiglitazone] + c1cc(-c2cnn3cc(-c4ccc(OCCN5CCCCC5)cc4)cnc23)ccn1 [Dorsomorphin]
cell viability [%], MV4-11
Details	drug1 concentration 1 nM	drug1 concentration 5 nM	drug1 concentration 10 nM	drug1 concentration 50 nM	drug1 concentration 100 nM	drug1 concentration 500 nM	drug1 concentration 1000 nM
drug2 concentration 5 nM	96.5	> 100	> 100	98.4	> 100	> 100	> 100
drug2 concentration 10 nM	> 100	97.3	> 100	93.5	> 100	83.4	> 100
drug2 concentration 50 nM	> 100	98.2	> 100	> 100	84.9	> 100	> 100
drug2 concentration 100 nM	98.3	98.1	99.6	> 100	> 100	> 100	85.3
drug2 concentration 500 nM	99	45.9	46.8	45.7	49	13	43.8
drug2 concentration 1000 nM	26.1	20.7	21.6	23.8	7.5	23.4	16.8
drug2 concentration 5000 nM	2.86	4.57	4.91	7.17	6.15	6.58	5.32

From the supplement of paper PMC8671470
